This is an account of results in PMC9061853, “Luminescent bis(benzo[d]thiazolyl)quinoxaline: facile synthesis, nucleic acid and protein BSA interaction, live-cell imaging, biopharmaceutical research and cancer theranostic application” (RSC Advances, 2019).

The subject of data set [1] is Caco-2. Nature of the data set: MTT cytotoxicity assay, Caco-2. The format is cell-based, human. To be noted: Homo sapiens, Caco-2; 72 h incubation. The text has this: (§1) In vitro cytotoxic activities (MTT assay):
(§2) The basic detection of cytotoxicity of anticancer compounds in vitro is MTT assay. The MTT proliferation assay is based on the reduction of the yellow MTT tetrazolium salt (3-[4,5-dimethylthiazol-2-yl]-2,5diphenyltetrazolium bromide) by mitochondrial dehydrogenases to form a purple MTT formazan crystals in viable cells. Synthesized compounds (7a-g) were prior dissolved in 0.1% DMSO and then serial dilution with medium and used in the experiment. Three different types of cancer cell lines were used in this experiment i.e., human Epitheloid Cervix Carcinoma (HeLa), human colon cancer cell line (Caco-2) and one normal kidney cell (HEK-293) were used in the assay. The cells were harvested at the log phase and it is cell counted using haemocytometer. Approximately 1 × 10^3 cells per well were seeded using all the cell lines. They were cultured in 100 μL of a DMEM media in 96-well plates and incubated at 37 °C for 24 hours under a 5% CO2 atmosphere. The cells were then washed with 1X PBS buffer and fresh media was added to the cells. The cells were then treated with different concentrations of the drugs (0.65-150 µM) in the volume of […] /well.
(§3) The control wells contains the same cell count of 1 × 10^3 cells per well of 100 μL medium containing 0.1% DMSO. After 24 h (for HeLa cell and HEK-293) and 72 h (for Caco-2), the medium was discarded and it is washed with 1X PBS and it was incubated with 100 µl of MTT reagent (1 mg/ml) for 4 h at 37°C.
(§4) Then the 96 well plate was placed on the shaker for 10 min and subsequently the absorbance was recorded by the ELISA reader at λ = 490 nm. The experiments were performed in […]
(§5) triplicate. […]
In general terms: Tetrazolium dyes change colour on reduction, which living cells bring about.

Data set [2] in a line: MTT cytotoxicity assay, Caco-2. The format is cell-based, human. To be noted: human, Caco-2, ratio of IC50 for HEK-293 to IC50 for Caco-2; read-out: SF (selectivity factor) Caco-2.
From the text: as §1, §2, §3, §4, §5

Data set [3] in a line: Fluorescence quantum yield in water. The format is physicochemical. To be noted: 298 K, quinine sulphate as standard. On the procedure: To know the absorption and emission behaviour of these synthesized compounds (7a–g), a standard concentration (3 × 10^−6 mol l^−1) in water has been used. In UV-vis spectra, λmax of all these compounds are observed at 320–330 nm due to π–π* transition (Fig. S1a ^†). The corresponding emission peaks are observed at 400–500 nm (Fig. S1b ^†). The emission of quantum yield (Φ) was calculated for all of the compounds (7a–g) using eqn (1) (Table S1 ^†). […]
2.6.2. Fluorescence study:
To know the emission property of all the synthesized complexes (7a-g), an initial investigation was performed using spectrofluorometric method in water by using absorption maximum as their excitation energy. Fluorescence quantum yield (Ф) of all the prepared compounds performed in water solution were calculated by employing the comparative William's method which involves the use of well-characterized standard with the known quantum yield value. Quinine sulphate was used as reference fluorophore excited at 350 nm and emission at 452 nm, quantum yield (ФR) = 0.50 in 1N H2SO4. The gradients of the plots are proportional to the quantum yield (Ф) of the studied system. The data obtained and quantum yield value calculated according to the equation (2): […]
Where, φ = Quantum yield, I = Peak Area, OD = absorbance at λmax, η = Refractive index of solvent and reference. Here, we have used Quinine Sulphate as a standard for calculating emission of quantum yield. […]

Data set [4] deals with HEK-293. Put plainly: MTT cytotoxicity assay, HEK-293 normal cells. The format is cell-based, human. To be noted: Homo sapiens, HEK293; 24 h incubation. On the procedure: (§6) Cytotoxicity studies were performed for all the synthesized quinoxaline compounds (7a–7g) using standard 3-(4,5-dimethylthiazol-2-yl)-2,5-diphenyltetrazolium bromide (MTT) assay beside a panel of cancer cell lines such as human epithelioid cervix carcinoma (HeLa), human colorectal adenocarcinoma cell line (Caco-2) and one normal human embryonic kidney cells (HEK-293) in triplicates (Table 3). […] It is noteworthy to mention that Compound 7a and 7g presented best cytoselectivity in HeLa and Caco-2 cell lines respectively. […]
as §1
as §2, with “[…]. Cisplatin has been used as a standard positive control drug. The control wells contains the same cell count of 1 × 10^3 cells per well of 100 μL medium containing 0.1% DMSO. After 24 h (for HeLa cell and HEK-293) and 72 h (for Caco-2), the medium was discarded and it is washed with 1X PBS and it was incubated with 100 µl of MTT reagent (1 mg/ml) for 4 h at 37°C.” for “/well.”
as §4, §5

For data set [5], the system named is HeLa. Put plainly: MTT cytotoxicity assay, HeLa. The format is cell-based, human. The note with it: for IC50: Homo sapiens, HeLa, 24 h incubation; for SF (selectivity factor) HeLa: ratio of IC50 for HEK-293 to IC50 for HeLa. Here is the method:
as §6, §1
as §2, with “[…]. Cisplatin has been used as a standard positive control drug. The control wells contains the same cell count of 1 × 10^3 cells per well of 100 μL medium containing 0.1% DMSO. After 24 h (for HeLa cell and HEK-293) and 72 h (for Caco-2), the medium was discarded and it is washed with 1X PBS and it was incubated with 100 µl of MTT reagent (1 mg/ml) for 4 h at 37°C.” for “/well.”
as §4, §5

Structures are written as SMILES.

As a reminder, the IC50 is the concentration needed to halve the response being measured. Low readings indicate inhibition by little substance, high ones a need for much substance. A word on the melting point: it is the temperature, or range, at which the solid turns liquid. `COc1ccc2nc(COc3ccccc3-c3nc4ccccc4s3)c(COc3ccccc3-c3nc4ccccc4s3)nc2c1` [Compound 7g, 2,2'-((((6-methoxyquinoxaline-2,3-diyl)bis(methylene))bis(oxy))bis(2,1-phenylene))bis(benzo[d]thiazole)] came in with a melting point of 155 to 160 °C. The half-maximal inhibitory concentration (IC50) in data set [1] was found to be 20.8 ± 1.6 µM. In data set [2], the selectivity ratio is > 9. Besides, the “Φ, emission quantum yield” value in data set [3] was 0.013. Further, in data set [4], the IC50 was > 200 µM. Also, in data set [5], inhibition was half-maximal at 36.8 ± 0.2 µM (IC50) and the “SF (selectivity factor) HeLa” value is >5.4.

For the molecule `Clc1cc2nc(COc3ccccc3-c3nc4ccccc4s3)c(COc3ccccc3-c3nc4ccccc4s3)nc2cc1Cl` [Compound 7e], the melting point was in the range of 145 to 150 °C. Moreover, the IC50 in data set [1] is 20.9 ± 1.6 µM. The selectivity ratio in data set [2] was > 9. The “Φ, emission quantum yield” value in data set [3] amounted to 0.04. In addition, the IC50 in data set [4] was > 200 µM. For the same molecule, in data set [5], the IC50 is 38.9 ± 0.1 µM and the “SF (selectivity factor) HeLa” value is listed as >5.1.
